Calls of active or inactive are those of the source. No cut-off for these calls is given here.

Assay [1] concerns Plasmodium berghei. Description: Antimalarial activity against blood-induced Plasmodium berghei infected in mouse at 640 mg/kg. It is filed as functional, organism-based. Set-up: dose 640 mg/kg.
In assay [2] the test system is Plasmodium gallinaceum. In words: Antimalarial activity against Plasmodium gallinaceum at 320 mg/kg by sporozoite-induced chick test. It is filed as functional, organism-based. Set-up: dose 320 mg/kg.

For `CCN(CC)Cc1c(C)[nH]c2cc(Cl)ccc2c1=O`, the outcome in assay [1] was inactive.

For `CCN1Cc2c(C)nc3ccc(C)cc3c2N(c2cccc(Cl)c2)C1`, in assay [1], the result was inactive.

In the case of `CCNCc1c(C)[nH]c2ccc(C)cc2c1=O`, the outcome in assay [1] was inactive.

In the case of `CCNCc1c(C)nc2ccc(OC)cc2c1Nc1cccc(Cl)c1`, the outcome in assay [1] was inactive.

In the case of `CCN1Cc2c(C)nc3ccc(OC)cc3c2N(c2cccc(Cl)c2)C1`, the result in assay [1] was inactive.

On to `CCNCc1c(C)[nH]c2ccc(OC)cc2c1=O`, for which the result in assay [1] was inactive.

For `CCN1Cc2c(/C=C/c3ccccc3)nc3ccc(OC)cc3c2N(c2cccc(Cl)c2)C1`, the result in assay [1] and in assay [2] was inactive.
